From patent US20260007680A1, “Compounds and Their Use as PDE4 Activators” (Mironid Limited, priority 2022, published 2026)

Tested on: m-IMCD3 cells
Assay: Inhibition of PGE2-stimulated in vitro cyst formation in 3D culture of m-IMCD3 cells (Experiment 4)
Format: cell-based, mouse
Conditions: Mus musculus, mIMCD3, 144 h, 10 μM test compound, mean cyst area compared to 100% for (DMSO + PGE2) and 0% for DMSO control, read-out: % Cyst area* after incubation with 10 μM test compound
Protocol: HEK 293 and MDCK cells (Public Health England, Cell Culture Collections) were maintained in Dulbecco's Modified Eagle's Medium (DMEM) supplemented with 10% (v/v) fetal bovine serum (FBS) (Seralab), 2 mM L-glutamine and 100 U/ml penicillin streptomycin cocktail (ThermoFisher); termed complete media. Clonal HEK 293 cell lines were maintained in complete media supplemented with 0.6 mg/mL G418 (Enzo Life Sciences). Mouse inner medullary collecting duct (m-IMCD3) cells [American Type Culture Collection (ATCC)] were maintained in media consisting of DMEM/Hams F-12 50/50 Mix (DMEM F12; Corning) supplemented with penicillin streptomycin cocktail (100 U/ml) and FBS (10% v/v) (DMEM F12-10% FBS).
The mouse Inner Medullary Collecting Duct cell line (m-IMCD3) spontaneously forms cystic spheroids in 3D culture with a Type 1 collagen/Matrigel extracellular matrix. This process can be stimulated with agents which raise intracellular cAMP and is used as an in vitro model for the formation of cystic structures in the kidneys of patients with ADPKD.
Rat Collagen I (Fisher Scientific) is prepared on ice by neutralising with 1 M NaOH and diluting with a 2×volume of DMEM/F12+10% FBS. This is mixed 1:1.1 with ice cold Matrigel (Corning) for coating plates (coating mix), and 1:0.93 with Matrigel for cell plating (plating mix).
The assay is conducted in the wells of a 96-well plate culture dish using a total volume of 130 μL of collagen/Matrigel/DMEM F12-10% FBS suspension in growth media for each matrix plug per individual well. Initially, 30 μL of collagen/Matrigel/DMEM F12-10% FBS (coating mix) is added into the well of a 96 well plate and the collagen is set to a gel by incubating at 37° C. for at least 15 minutes. A second layer of 100 μL collagen/Matrigel suspension (plating mix) containing m-IMCD3 cells (2.75×10^6 m-IMCD3 cells per 96-well plate) is layered over the coating mix and the collagen/Matrigel/cell mix again set to a gel by incubating at 37° C. Cell cultures are maintained at 37° C. in an atmosphere of 5% CO2, 95% air.
Between 18 and 24 h after plating, test compound(s) as DMSO stock solutions [0.1% (v/v) final DMSO concentration] and PGE2 (100 nM final concentration) in DMEM F12-10% FBS are added in quadruplicate wells per condition. Media, together with the test compound and PGE2 are replenished after 2 or 3 days. After 6 days of culture z stack images of the wells are captured using the Nikon Eclipse Ti2-E microscope. Nikon General Analysis software is used to measure the following parameters in each well: the mean cyst area, the number of cysts, and the total cyst area.
PDE4 long form activators inhibited in vitro cyst formation in m-IMCD3 cells. Data are shown in FIG. 2 and Table 4 as mean cyst area (%), compared to 100% for (DMSO+PGE2) and 0% for DMSO control.

**Q.** For `CN1CCN(c2cc3ncc(C(=O)NC4CCCCC4)cn3n2)CC1` [Example 77, N-cyclohexyl-2-(4-methylpiperazin-1-yl)pyrazolo[1,5-a]pyrimidine-6-carboxamide], which activity at 10 µM is on record?
**A.** 0%

**Q.** `O=C(NC1CCCC1)c1cnc2cc(N3C4CCC3CNC4)nn2c1` [Example 80, 2-(3,8-diazabicyclo[3.2.1]octan-8-yl)-N-cyclopentylpyrazolo[1,5-a]pyrimidine-6-carboxamide] was tested. Which activity at 10 µM did it give?
**A.** 14%

**Q.** With `CN1CC2CCC(C1)N2c1cc2ncc(C(=O)NC3CCCC3)cn2n1` [Example 81, N-cyclopentyl-2-(3-methyl-3,8-diazabicyclo[3.2.1]octan-8-yl)pvrazolo[1,5-a]pyrimidine-6-carboxamide] as the molecule, how does the activity at 10 µM read?
**A.** -3%

**Q.** Which activity at 10 µM does the source give for `O=C(N[C@H]1CCOc2ccccc21)c1cnc2cc(C3CCNCC3)nn2c1` [Example 82, (S)—N-(chroman-4-yl)-2-(piperidin-4-yl)pyrazolo[1,5-a]pyrimidine-6-carboxamide] here?
**A.** 3%

**Q.** `CCN1CCC(c2cc3ncc(C(=O)N[C@H]4CCOc5ccccc54)cn3n2)CC1` [Example 84, (S)—N-(chroman-4-yl)-2-(1-ethylpiperidin-4-yl)pyrazolo[1,5-a]pyrimidine-6-carboxamide] was tested. Which activity at 10 µM did it give?
**A.** 7%

**Q.** Which activity at 10 µM does the source give for `CN1CCC(c2cc3ncc(C(=O)NC4CCCCC4)cn3n2)CC1` [Example 86, N-cyclohexyl-2-(1-methylpiperidin-4-yl)pyrazolo[1,5-a]pyrimidine-6-carboxamide] here?
**A.** 7%

**Q.** How did the activity at 10 µM turn out when `CN1CCC(c2cc3ncc(C(=O)N[C@H]4CCOc5ccccc54)cn3n2)CC1` [Example 88, (S)—N-(chroman-4-yl)-2-(1-methylpiperidin-4-yl)pyrazolo[1,5-a]pyrimidine-6-carboxamide] was run?
**A.** 15%

**Q.** How did the activity at 10 µM turn out when `O=C(NCc1ccc(F)cc1)c1cnc2cc(C3CCNCC3)nn2c1` [Example 89, N-(4-fluorobenzyl)-2-(piperidin-4-yl)pyrazolo[1,5-a]pyrimidine-6-carboxamide] was run?
**A.** -3%

**Q.** `Cc1c(C(=O)NC2CCC(F)(F)CC2)cnc2cc(C3CCNCC3)nn12` [Example 91, N-(4,4-difluorocyclohexyl)-7-methyl-2-(piperidin-4-yl)pyrazolo[1,5-a]pyrimidine-6-carboxamide] was tested. Which activity at 10 µM did it give?
**A.** 5%

**Q.** Which activity at 10 µM does the source give for `CCN1CCC(c2cc3ncc(C(=O)NC4CCC(F)(F)CC4)c(C)n3n2)CC1` [Example 94, N-(4,4-difluorocyclohexyl)-2-(1-ethylpiperidin-4-yl)-7-methylpyrazolo[1,5-a]pyrimidine-6-carboxamide] here?
**A.** 13%

**Q.** Which activity at 10 µM does the source give for `Cc1c(C(=O)N[C@H]2CCOc3ccccc32)cnc2cc(C3CCN(C)CC3)nn12` [Example 95, N-[(4S)-3,4-dihydro-2H-1-benzopyran-4-yl]-7-methyl-2-(1-methylpiperidin-4-yl)pyrazolo[1,5-a]pyrimidine-6-carboxamide] here?
**A.** 13%

**Q.** Which activity at 10 µM does the source give for `Cc1c(C(=O)NC2CCC(F)(F)CC2)cnc2cc(C3CCN(C)CC3)nn12` [Example 96, N-(4,4-difluorocyclohexyl)-7-methyl-2-(1-methylpiperidin-4-yl)pyrazolo[1,5-a]pyrimidine-6-carboxamide] here?
**A.** 11%

**Q.** How did the activity at 10 µM turn out when `CN1CCC(c2nc3cc(C(=O)NC4CCCC4)ccc3o2)CC1` [Example 98, N-cyclopentyl-2-(1-methylpiperidin-4-yl)benzo[d]oxazole-5-carboxamide] was run?
**A.** -3%

**Q.** How did the activity at 10 µM turn out when `O=C(NC1CCCC1)c1ccc2oc(N3CCNCC3)nc2c1` [Example 101, N-cyclopentyl-2-(piperazin-1-yl)benzo[d]oxazole-5-carboxamide] was run?
**A.** 21%

**Q.** `CCN1CCN(c2nc3cc(C(=O)N[C@H]4CCOc5ccccc54)ccc3o2)CC1` [Example 102, (S)—N-(chroman-4-yl)-2-(4-ethylpiperazin-1-yl)benzo[d]oxazole-5-carboxamide] was tested. Which activity at 10 µM did it give?
**A.** 8%

**Q.** For `CCN1CCN(c2nc3cc(C(=O)NC4CCCC4)ccc3o2)CC1` [Example 103, N-cyclopentyl-2-(4-ethylpiperazin-1-yl)benzo[d]oxazole-5-carboxamide], which activity at 10 µM is on record?
**A.** -1%

**Q.** Which activity at 10 µM does the source give for `O=C(N[C@H]1CCOc2ccccc21)c1ccc2oc(N3CCN(CCO)CC3)nc2c1` [Example 106, (S)—N-(chroman-4-yl)-2-(4-(2-hydroxyethyl)piperazin-1-yl)benzo[d]oxazole-5-carboxamide] here?
**A.** -3%

**Q.** How did the activity at 10 µM turn out when `CCN1CCN(c2nc3ccc(C(=O)NC4CCCC4)cc3o2)CC1` [Example 108, N-cyclopentyl-2-(4-ethylpiperazin-1-yl)benzo[d]oxazole-6-carboxamide] was run?
**A.** 24%

**Q.** For `O=C(NC1CCC(F)(F)CC1)c1ccc2nc(N3C4CCC3CNC4)sc2n1` [Example 116, 2-(3,8-diazabicyclo[3.2.1]octan-8-yl)-N-(4,4-difluorocyclohexyl)thiazolo[5,4-b]pyridine-5-carboxamide], which activity at 10 µM is on record?
**A.** -1%

**Q.** How did the activity at 10 µM turn out when `O=C(NC1CCC(F)(F)CC1)c1cc2sc(N3C4CCC3CNC4)nc2cn1` [Example 120, 2-(3,8-diazabicyclo[3.2.1]octan-8-yl)-N-(4,4-difluorocyclohexyl)thiazolo[4,5-c]pyridine-6-carboxamide] was run?
**A.** 29%

**Q.** How did the activity at 10 µM turn out when `O=C(NC1CCCC1)c1cnc2cc(N3C4CCC3CNC4)sc2c1` [Example 121, 2-(3,8-diazabicyclo[3.2.1]octan-8-yl)-N-cyclopentylthieno[3,2-b]pyridine-6-carboxamide] was run?
**A.** 3%
